IC50 data for 21 molecules are collected here from patent US20200016159A1, “N3-CYCLICALLY SUBSTITUTED THIENOURACILS AND USE THEREOF” (Bayer Aktiengesellschaft, priority 2016, published 2020).

Structures are written as SMILES.

The assay addresses T1, human adenosine A2b receptor (Homo sapiens, UniProt P29275).
T1 sequence (P29275 1-332): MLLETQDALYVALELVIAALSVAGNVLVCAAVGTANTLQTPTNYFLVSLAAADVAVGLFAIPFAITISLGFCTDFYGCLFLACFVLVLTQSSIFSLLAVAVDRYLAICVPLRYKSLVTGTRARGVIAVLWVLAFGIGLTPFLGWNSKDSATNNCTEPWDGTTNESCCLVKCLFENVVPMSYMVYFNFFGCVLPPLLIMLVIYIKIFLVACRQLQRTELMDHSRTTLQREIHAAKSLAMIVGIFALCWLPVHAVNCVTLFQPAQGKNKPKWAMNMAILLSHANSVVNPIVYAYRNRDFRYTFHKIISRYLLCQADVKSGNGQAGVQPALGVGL
The assay is described as follows: Cellular in vitro reporter gene test for A2b receptor activity (antagonism of NECA). To be noted: recombinant CHO-K1 cells, CRE-luciferase reporter, co-incubation with EC50 concentration of NECA, 3 hours. The class given is cell-based. Also noted: expressed in transfected cells; host or cells: CHO-K1 (Chinese hamster ovary) with CRE-luciferase reporter. In outline:
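CHO-K1 cells expressing recombinant human A2b receptor plus a CRE-driven firefly luciferase reporter. Compounds co-incubated with NECA at its same-day EC50 concentration; luminescence read 3 hours after NECA addition. IC50 values, sometimes means of several determinations rounded to two significant figures.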

In the case of `Cc1c(Cn2nc[nH]c2=O)sc2c1c(=O)n(C1CC1)c(=O)n2CC(F)F` [Example 199, 3-Cyclopropyl-1-(2,2-difluoroethyl)-5-methyl-6-[(5-oxo-4,5-dihydro-H-1,2,4-triazol-1-yl)methyl]thieno[2,3-d]pyrimidine-2,4(1H,3H)-dione], the IC50 came to 130 nM.

Turning to `Cc1c(Cn2[nH]ccc2=O)sc2c1c(=O)n(C1CC1)c(=O)n2CCC(F)(F)F` [Example 200, 3-Cyclopropyl-5-methyl-6-[(5-oxo-2,5-dihydro-H-pyrazol-1-yl)methyl]-1-(3,3,3-trifluoropropyl)thieno[2,3-d]pyrimidine-2,4(1H,3H)-dione], the IC50 was determined as 55 nM.

In the case of `Cc1c(Cn2nc[nH]c2=O)sc2c1c(=O)n(C1CC1)c(=O)n2CCCC(F)(F)F` [Example 201, 3-Cyclopropyl-5-methyl-6-[(5-oxo-4,5-dihydro-1H-1,2,4-triazol-1-yl)methyl]-1-(4,4,4-trifluorobutyl)thieno[2,3-d]pyrimidine-2,4(1H,3H)-dione], the IC50 was 53 nM.

Take `Cc1c(CN2CCNC2=O)sc2c1c(=O)n(C1CC1)c(=O)n2CC1CC(F)(F)C1` [Example 204, 3-Cyclopropyl-1-[(3,3-difluorocyclobutyl)methyl]-5-methyl-6-[(2-oxoimidazolidin-1-yl)methyl]thieno[2,3-d]pyrimidine-2,4(1H,3H)-dione]: the IC50 worked out at 1.8 nM.

As to `Cc1c(Cn2cc[nH]c2=O)sc2c1c(=O)n(C1CC1)c(=O)n2CC1CC(F)(F)C1` [Example 205, 3-Cyclopropyl-1-[(3,3-difluorocyclobutyl)methyl]-5-methyl-6-[(2-oxo-2,3-dihydro-1H-imidazol-1-yl)methyl]thieno[2,3-d]pyrimidine-2,4(1H,3H)-dione], the half-maximal inhibitory concentration (IC50) is 7 nM.

Take `Cc1c(Cn2nc[nH]c2=O)sc2c1c(=O)n(C1CC1)c(=O)n2CC1CC(F)(F)C1` [Example 206, 3-Cyclopropyl-1-[(3,3-difluorocyclobutyl)methyl]-5-methyl-6-[(5-oxo-4,5-dihydro-1H-1,2,4-triazol-1-yl)methyl]thieno[2,3-d]pyrimidine-2,4(1H,3H)-dione]: the half-inhibitory concentration (IC50) was 6.2 nM.

With `Cc1c(Cn2nc[nH]c2=O)sc2c1c(=O)n(C1CC1)c(=O)n2CCCC#N` [Example 212, 4-{3-Cyclopropyl-5-methyl-2,4-dioxo-6-[(5-oxo-4,5-dihydro-1H-1,2,4-triazol-1-yl)methyl]-3,4-dihydrothieno[2,3-d]pyrimidin-1 (2H)-yl}butanenitrile], the half-maximal inhibitory concentration (IC50) is 240 nM.

On to `Cc1c(Cn2nc[nH]c2=O)sc2c1c(=O)n(C1CC1)c(=O)n2CCSC(F)(F)F` [Example 213, 3-Cyclopropyl-5-methyl-6-[(5-oxo-4,5-dihydro-1H-1,2,4-triazol-1-yl)methyl]-1-{2-[(trifluoromethyl)sulfanyl]ethyl}thieno[2,3-d]pyrimidine-2,4(1H,3H)-dione], for which the IC50 was 40 nM.

As for `Cc1c(Cn2cc[nH]c2=O)sc2c1c(=O)n(C1(C)CC1)c(=O)n2CCC(F)(F)F` [Example 214, 5-Methyl-3-(1-methylcyclopropyl)-6-[(2-oxo-2,3-dihydro-1H-imidazol-1-yl)methyl]-1-(3,3,3-trifluoropropyl)thieno[2,3-d]pyrimidine-2,4(1H,3H)-dione], the IC50 was determined as 10 nM.

As for `Cc1c(Cn2[nH]ccc2=O)sc2c1c(=O)n(C1(C)CC1)c(=O)n2CCC(F)(F)F` [Example 215, 5-Methyl-3-(1-methylcyclopropyl)-6-[(5-oxo-2,5-dihydro-1H-pyrazol-1-yl)methyl]-1-(3,3,3-trifluoropropyl)thieno[2,3-d]pyrimidine-2,4(1H,3H)-dione], the IC50 came out at 73 nM.

Take `Cc1c(Cn2cc[nH]c2=O)sc2c1c(=O)n(C1(C)CC1)c(=O)n2CC1CC(F)(F)C1` [Example 216]: the 50% inhibitory concentration (IC50) was 3.2 nM.

Take `COCCn1c(=O)n(C2(C)CC2)c(=O)c2c(C)c(Cn3cc[nH]c3=O)sc21` [Example 217, 1-(2-Methoxyethyl)-5-methyl-3-(1-methylcyclopropyl)-6-[(2-oxo-2,3-dihydro-1H-imidazol-1-yl)methyl]thieno[2,3-d]pyrimidine-2,4(1H,3H)-dione]: the IC50 is 38 nM.

Take `CCc1c(CN2CCNC2=O)sc2c1c(=O)n(C1(C)CC1)c(=O)n2CCC(F)(F)F` [Example 218, 5-Ethyl-3-(1-methylcyclopropyl)-6-[(2-oxoimidazolidin-1-yl)methyl]-1-(3,3,3-trifluoropropyl)thieno[2,3-d]pyrimidine-2,4(1H,3H)-dione]: the 50% inhibitory concentration (IC50) amounted to 54 nM.

Turning to `CCc1c(CN2CCNC2=O)sc2c1c(=O)n(C1(C)CC1)c(=O)n2CCOC` [Example 219, 5-Ethyl-1-(2-methoxyethyl)-3-(1-methylcyclopropyl)-6-[(2-oxoimidazolidin-1-yl)methyl]thieno[2,3-d]pyrimidine-2,4(1H,3H)-dione], the IC50 came out at 400 nM.

In the case of `Cc1c(Cn2nc[nH]c2=O)sc2c1c(=O)n([C@H]1C[C@@H]1C)c(=O)n2C` [Example 220, 1,5-Dimethyl-3-[(1S,2S)-2-methylcyclopropyl]-6-[(5-oxo-4,5-dihydro-1H-1,2,4-triazol-1-yl)methyl]thieno[2,3-d]pyrimidine-2,4(1H,3H)-dione], the IC50 was 33 nM.

On to `CCCCn1c(=O)n([C@H]2C[C@@H]2C)c(=O)c2c(C)c(CN3CCNC3=O)sc21` [Example 230, 1-Butyl-5-methyl-3-[(1S,2S)-2-methylcyclopropyl]-6-[(2-oxoimidazolidin-1-yl)methyl]thieno[2,3-d]pyrimidine-2,4(1H,3H)-dione], for which the 50% inhibitory concentration (IC50) was 1.3 nM.

Turning to `Cc1c(CN2CCNC2=O)sc2c1c(=O)n([C@H]1C[C@@H]1C)c(=O)n2CC1CCC1` [Example 248, 1-(Cyclobutylmethyl)-5-methyl-3-[(1S,2S)-2-methylcyclopropyl]-6-[(2-oxoimidazolidin-1-yl)methyl]thieno[2,3-d]pyrimidine-2,4(1H,3H)-dione], the IC50 is 1.2 nM.

For `Cc1c(CN2CCNC2=O)sc2c1c(=O)n([C@H]1C[C@@H]1C)c(=O)n2CC1CC1(F)F` (stereo partly drawn) [Example 249, 1-[(2,2-Difluorocyclopropyl)methyl]-5-methyl-3-[(1S,2S)-2-methylcyclopropyl]-6-[(2-oxoimidazolidin-1-yl)methyl]thieno[2,3-d]pyrimidine-2,4(1H,3H)-dione], the IC50 amounted to 1.9 nM.

With `Cc1c(CN2CCNC2=O)sc2c1c(=O)n([C@H]1C[C@@H]1C)c(=O)n2CC1CCC(F)(F)C1` (stereo partly drawn) [Example 255, 1-[(3,3-Difluorocyclopenty)methy]-5-methyethyl-3-[(S,2S)-2-methylcyclopropyl]-6-[(2-oxoimidazolidin-1-yl)methyl]thieno[2,3-d]pyrimidine-2,4(1H,3H)-dione], the IC50 was determined as 6.7 nM.

As to `Cc1c(CN2CCNC2=O)sc2c1c(=O)n([C@H]1C[C@@H]1C)c(=O)n2CC1CCO1` (stereo partly drawn) [Example 282, 5-Methyl-3-[(1S,2S)-2-methylcyclopropyl]-1-(oxetan-2-ylmethyl)-6-[(2-oxoimidazoliidin-1-yl)methyl]thieno[2,3-d]pyrimidine-2,4(1H,3H)-dione], the IC50 is 4.1 nM.

As for `Cc1c(CN2CCNC2=O)sc2c1c(=O)n([C@H]1C[C@@H]1C)c(=O)n2CC1COC1` [Example 285, 5-Methyl-3-[(1S,2S)-2-methylcyclopropyl]-1-(oxetan-3-ylmethyl)-6-[(2-oxoimidazoliddin-1-yl)methyl]thieno[2,3-d]pyrimidine-2,4(1H,3H)-dione], the IC50 was found to be 4.1 nM.

Usually IC50 stands for the concentration needed to halve the response being measured.
